In one assay the test system is ScFv FITC on CHO cells. Briefly: Competition binding on CHO ScFv FITC-expressing cells. The settings on record: in the presence of 1 nM 111In-DTPA-FITC as tracer. The method, then:
Wild-type or ScFv FITC-expressing cells were plated at 3×10^4 cells/well in 96-well plates one day before binding experiments. […] Cells were gently agitated for 45 minutes at rt and then washed three times 250 ul/well PBS at 4 degrees C. […] For competition experiments, competitor compounds were diluted in 50 ul/well of PBS, 0.1% BSA and added first to washed wells containing cells as above. […] Incubations, washes and counting were performed as above.

The test system of a further assay is Wild-type CHO cells. Kind of assay: FACS staining of wild-type CHO cells. Format: binding. The procedure:
(§1) Stable transfectants were isolated essentially as described (Mattheakis et al., 1999). All ScFv FITC expression constructs contain a neo resistance cassette. Primary G418-resistant populations were stained with mAb 179 labeled with fluorescein as follows. Antibody 179 was linked to fluorescein using fluorescein isothiocyanate (FITC, Molecular Probes, Eugene, Oreg.). This modified mAb 179 contained on average six fluoresceins per antibody molecule. Cells, ˜3-5×10^6, were resuspended in 500 μl of PBS, 0.1% BSA containing mAb 179-FITC at a final concentration of 8 μg/ml. Cells were rotated in the dark for 45 min, spun down, and subsequently resuspended in PBS and enrich sorted using a FACStar plus (Becton-Dickinson, San Jose, Calif.) based on the highest fluorescence. Enriched populations were cloned by limiting dilution and subsequently screened by ELISA. Briefly, 96well plates of clones were fixed with 200 μl per well of ice cold methanol for 10 min. Subsequent steps were done at room temperature (rt). Plates were blocked with PBS, 1% BSA for 30 min and then incubated with mAb 179, 1 μg/ml in PBS, 0.1% BSA for 1h. After 3 washes of 10 min each with PBS, wells were incubated with 1 μg/ml goat anti-mouse-HRP (Pierce, Rockford, Ill.) in PBS, 0.1% BSA for 1 h, washed with PBS three times as above, developed with a TMB peroxidase substrate colorometric assay ( Kirkegaard & Perry Laboratories, Gaithersburg, Md.) and the OD415 measured. Reactive clones were expanded, stained with mAb 179-fluorescein as above and analyzed using a FACScan (Becton-Dickinson, San Jose, Calif.) to choose those with the highest expression of the ScFv based on fluorescence. Clones were also analyzed by anti-179 Western blotting to verify the size of the ScFv protein expressed. ScFv-expressing clones were compared to wild-type CHO-K1 cells by FACScan using further reagents as follows in PBS, 0.1% BSA as above for mAb 179-fluorescein staining. FITC-BSA (Sigma, St. Louis, Mo.) was used at a final concentration of 20 μg/ml and DTPA-FITC and In-DTPA-FITC were each used at a final concentration of 2 μg/ml.

Assay [1] relates to FITC ScFv expressed on CHO cells. Briefly: FACS staining of CHO cells expressing FITC ScFv. Type of assay: binding. The procedure: as §1

With `O=C1OC2(c3ccccc31)c1cc(I)c(O)c(I)c1Oc1c2cc(I)c(O)c1I` [erythrosine, reference compound], the IC50 with ScFv FITC on CHO cells was determined as 309 nM.
With “Diethylenetriaminepenta-acetic acid (DTPA) coupled to fluorescein [DTPA-FITC]”, the “Mean (fluorescence, FACS)” value came to 13.89 with Wild-type CHO cells (marker A11), 8.24 with Wild-type CHO cells (marker M1), 100.62 in assay [1] (marker A11) and 98.06 in assay [1] (marker M1). For the same molecule, the “Median (fluorescence, FACS)” value in the assay on Wild-type CHO cells (marker A11) came to 7.99; in the assay on Wild-type CHO cells (marker M1), 7.84; in assay [1] (marker A11), 90.58; in assay [1] (marker M1), 91.40. Moreover, in the assay with ScFv FITC on CHO cells, the IC50 came out at 11.8 nM.

What is called IC50 is the concentration at which inhibition is half-maximal.

These data come from patent US20030033616A1, “Imaging marker transgenes” (priority 2001, published 2003).
